Measurements reported in US7498323B2, “Spiro-piperidine compounds and medicinal use thereof” (Ono Pharmaceuticals Co., Ltd., priority 2003, dated 2009).

Molecular target: Human CCR2 (Homo sapiens, UniProt P41597)
Conditions: at 10 μM; human CCR2-expressing cells (THP-1); human MCP-1 30 nM; Ca2+ transient increase
Method: (5) Inhibition test on the binding of MCP-1 to CCR2 (activity of MCP-1 to induce transient increase of Ca ion).
Then, 4-fold to 8-fold 1×Hanks/HEPES (20 mM; pH 7.4)/Probenecid (2.5 mM) was added thereto, followed by further incubation at 37° C. for 30 minutes under shading. After the cells were washed with 1×Hanks/HEPES (20 mM; pH 7.4)/Probenecid (2.5 mM) solution, the cells were suspended again by the same solution to give a density of 2.0×10^6 cells/ml and added to a 96-well plate at 100 μl/well. Each of the test compounds was added, and 3 minutes thereafter, a recombinant human MCP-1 (PeproTach) diluted with 1×Hanks/HEPES (20 mM; pH 7.4)/Probenecid (2.5 mM) was added thereto to a final concentration of 30 nM. Transient increase in the intracellular Ca^2+ concentration induced by the human MCP-1 was measured using a Ca^2+ detector for 96 well use (Hamamatsu Photonics), and inhibition ratio (%) of the test compound was calculated by the following calculation formula. Inhibition ratio=(Ec−Ea)/Ec×100 • Ec: measured value of Ca^2+ transient increase by MCP-1 • Ea: measured value of Ca^2+ transient increase by MCP-1 when a test compound was added.

Chain of Human CCR2 (P41597 1-360 isoform P41597-2): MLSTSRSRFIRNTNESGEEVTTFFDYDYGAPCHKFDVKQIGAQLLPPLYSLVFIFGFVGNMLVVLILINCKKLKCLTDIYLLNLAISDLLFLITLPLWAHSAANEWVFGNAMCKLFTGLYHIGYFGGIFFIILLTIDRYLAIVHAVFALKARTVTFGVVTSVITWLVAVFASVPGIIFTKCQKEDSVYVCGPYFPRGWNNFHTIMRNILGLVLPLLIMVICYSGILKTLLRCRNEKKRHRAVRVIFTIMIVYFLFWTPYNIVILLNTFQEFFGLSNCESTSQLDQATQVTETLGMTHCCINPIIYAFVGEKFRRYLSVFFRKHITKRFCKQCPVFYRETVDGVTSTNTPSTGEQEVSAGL

In the case of `CCCN1C(=O)N(CCCNC(=O)OCc2ccccc2)CCC12CCN(CCc1ccccc1)CC2` [Example 37, phenylmethyl{3-[2-oxo-9-(2-phenylethyl)-1-propyl-1,3,9-triazaspiro[5.5]undeca-3-yl]propyl}carbamate], the inhibition ratio is reported as ≥ 50%.
